Legend:
Format in all cases: biochemical
VEGFR2 = target: T1, VEGFR2 (Homo sapiens, UniProt P35968); assay: Z'-LYTE in vitro enzyme activity assay, VEGFR2; conditions: 100 μM ATP, 60 minutes, room temperature; read-out: IC50 detected by Z'-LYTE, VEGFR2
T1 construct: purchased Life technology
Description: (§1) The enzyme activity was measured by Z′-LYTE™ Detection Kinase Assay. The IC50 value of the compounds was used as an index to evaluate the inhibitory effect of the compounds on VEGFR2, FGFR1 and PDGFRB.
(§2) Recombinant human VEGFR2 and FGFR1 proteases were purchased from Life technology, PDGFRB Protease was purchased from Millipore.
(§3) Z-LYTE™ Kit Tyr1 and Tyr4 were purchased from Life technology. Multi-microplate reader, Envision (PerkinElmer) read board was used.
(§4) The test compounds were diluted 3 times with a concentration gradient, the final concentration was from 10 μM to 0.17 nM with a total of 11 concentrations, and each concentration had two parallel holes; the content of DMSO in the assay was 1%.
3 nM VEGFR2 protein kinase, 2 μM Tyr1 peptide, 100 μM ATP, 50 mM HEPES (pH 7.5), 10 mM MgCl2, 1 mM EGTA, 0.01% BRIJ-35. The detector plate was Black Proxiplate 384-Plus plate (PerkinElmer), the reaction was performed at room temperature for 60 minutes, and the reaction system was 10 μl.
(§5) The reaction was stopped by adding 5 μl of DV reagent B (1:128) to the kinase reaction solution and incubated at 23° C. for 60 minutes. The Envision instrument was used to read the plate.
(§6) The data was converted to phosphorylation rate and inhibition rate and the 4 parameter curve fitting (Model 205 in XLFIT5, iDBS) was used to get IC50 data of the compounds.

PDGFRB = target: T2, PDGFRB (Homo sapiens, UniProt P09619); assay: Z'-LYTE in vitro enzyme activity assay, PDGFRB; conditions: 100 μM ATP, 60 minutes, room temperature; read-out: IC50 detected by Z'-LYTE, PDGFRB
T2 construct: purchased Millipore
Description: as §1, §2, §3, §4
(§7) 40 nM PDGFRB protein kinase, 2 μM Tyr4 peptide, 100 μM ATP, 50 mM HEPES (pH 7.5), 10 mM MgCl2, 1 mM EGTA, 0.01% BRIJ-35, 2 mM MnCl2, 1 mM DTT. The detector plate was Black Proxiplate 384-Plus plate (PerkinElmer), the reaction was performed at room temperature for 60 minutes, and the reaction system was 10 μl.
as §5, §6

FGFR1 = target: T3, FGFR1 (Homo sapiens, UniProt P11362); assay: Z'-LYTE in vitro enzyme activity assay, FGFR1; conditions: 25 μM ATP, 60 minutes, room temperature; read-out: IC50 detected by Z'-LYTE, FGFR1
T3 construct: purchased Life technology
Description: as §1, §2, §3, §4
as §7, with “1” for “40”, “FGFR1” for “PDGFRB”, “25” for “100”
as §5, §6

T3 sequence (P11362 22-822): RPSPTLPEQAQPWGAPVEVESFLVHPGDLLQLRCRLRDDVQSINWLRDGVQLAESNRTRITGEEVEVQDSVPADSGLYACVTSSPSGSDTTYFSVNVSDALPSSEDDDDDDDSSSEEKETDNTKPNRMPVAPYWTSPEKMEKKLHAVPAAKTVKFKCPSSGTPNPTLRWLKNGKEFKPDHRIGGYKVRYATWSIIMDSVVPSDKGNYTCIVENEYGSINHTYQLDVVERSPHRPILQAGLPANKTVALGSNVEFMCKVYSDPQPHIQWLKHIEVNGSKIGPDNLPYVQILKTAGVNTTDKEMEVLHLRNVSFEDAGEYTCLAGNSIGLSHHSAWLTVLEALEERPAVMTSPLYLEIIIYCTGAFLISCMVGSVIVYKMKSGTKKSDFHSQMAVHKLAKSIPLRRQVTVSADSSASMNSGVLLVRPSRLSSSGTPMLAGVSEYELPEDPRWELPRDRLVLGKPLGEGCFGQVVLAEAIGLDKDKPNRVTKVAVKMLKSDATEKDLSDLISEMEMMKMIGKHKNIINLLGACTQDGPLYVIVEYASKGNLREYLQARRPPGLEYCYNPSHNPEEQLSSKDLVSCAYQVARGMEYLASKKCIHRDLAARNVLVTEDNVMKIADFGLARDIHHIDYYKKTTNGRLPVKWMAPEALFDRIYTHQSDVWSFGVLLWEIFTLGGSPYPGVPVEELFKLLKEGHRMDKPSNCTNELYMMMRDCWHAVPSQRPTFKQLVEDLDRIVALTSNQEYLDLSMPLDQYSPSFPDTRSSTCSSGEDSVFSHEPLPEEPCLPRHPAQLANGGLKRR
T2 sequence (P09619 33-1106): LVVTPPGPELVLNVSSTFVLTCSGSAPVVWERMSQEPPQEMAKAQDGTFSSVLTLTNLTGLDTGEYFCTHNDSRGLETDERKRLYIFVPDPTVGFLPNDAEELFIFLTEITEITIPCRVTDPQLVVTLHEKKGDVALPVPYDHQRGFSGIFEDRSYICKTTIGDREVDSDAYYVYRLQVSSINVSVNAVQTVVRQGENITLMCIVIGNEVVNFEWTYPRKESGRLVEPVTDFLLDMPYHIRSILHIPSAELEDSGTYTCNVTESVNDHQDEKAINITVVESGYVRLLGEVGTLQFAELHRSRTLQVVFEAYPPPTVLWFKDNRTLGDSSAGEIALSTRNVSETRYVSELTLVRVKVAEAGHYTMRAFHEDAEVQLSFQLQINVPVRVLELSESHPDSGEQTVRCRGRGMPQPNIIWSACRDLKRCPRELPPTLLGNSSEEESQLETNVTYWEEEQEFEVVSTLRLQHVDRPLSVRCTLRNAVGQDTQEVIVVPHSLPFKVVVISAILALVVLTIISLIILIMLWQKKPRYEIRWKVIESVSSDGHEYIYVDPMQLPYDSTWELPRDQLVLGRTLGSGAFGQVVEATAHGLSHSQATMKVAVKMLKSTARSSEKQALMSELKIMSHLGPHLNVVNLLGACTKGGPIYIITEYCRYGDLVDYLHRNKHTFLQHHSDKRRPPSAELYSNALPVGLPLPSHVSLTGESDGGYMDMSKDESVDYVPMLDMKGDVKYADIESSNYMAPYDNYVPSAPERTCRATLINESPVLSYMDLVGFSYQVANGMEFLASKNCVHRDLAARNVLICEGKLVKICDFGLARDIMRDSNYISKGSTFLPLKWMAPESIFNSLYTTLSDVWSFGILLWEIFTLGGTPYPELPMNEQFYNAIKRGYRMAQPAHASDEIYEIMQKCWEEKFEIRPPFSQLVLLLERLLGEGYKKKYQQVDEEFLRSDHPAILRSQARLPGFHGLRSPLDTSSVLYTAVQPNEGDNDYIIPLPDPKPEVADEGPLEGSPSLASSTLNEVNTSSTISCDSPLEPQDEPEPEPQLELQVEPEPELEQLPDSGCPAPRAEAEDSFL
T1 sequence (P35968 20-1356): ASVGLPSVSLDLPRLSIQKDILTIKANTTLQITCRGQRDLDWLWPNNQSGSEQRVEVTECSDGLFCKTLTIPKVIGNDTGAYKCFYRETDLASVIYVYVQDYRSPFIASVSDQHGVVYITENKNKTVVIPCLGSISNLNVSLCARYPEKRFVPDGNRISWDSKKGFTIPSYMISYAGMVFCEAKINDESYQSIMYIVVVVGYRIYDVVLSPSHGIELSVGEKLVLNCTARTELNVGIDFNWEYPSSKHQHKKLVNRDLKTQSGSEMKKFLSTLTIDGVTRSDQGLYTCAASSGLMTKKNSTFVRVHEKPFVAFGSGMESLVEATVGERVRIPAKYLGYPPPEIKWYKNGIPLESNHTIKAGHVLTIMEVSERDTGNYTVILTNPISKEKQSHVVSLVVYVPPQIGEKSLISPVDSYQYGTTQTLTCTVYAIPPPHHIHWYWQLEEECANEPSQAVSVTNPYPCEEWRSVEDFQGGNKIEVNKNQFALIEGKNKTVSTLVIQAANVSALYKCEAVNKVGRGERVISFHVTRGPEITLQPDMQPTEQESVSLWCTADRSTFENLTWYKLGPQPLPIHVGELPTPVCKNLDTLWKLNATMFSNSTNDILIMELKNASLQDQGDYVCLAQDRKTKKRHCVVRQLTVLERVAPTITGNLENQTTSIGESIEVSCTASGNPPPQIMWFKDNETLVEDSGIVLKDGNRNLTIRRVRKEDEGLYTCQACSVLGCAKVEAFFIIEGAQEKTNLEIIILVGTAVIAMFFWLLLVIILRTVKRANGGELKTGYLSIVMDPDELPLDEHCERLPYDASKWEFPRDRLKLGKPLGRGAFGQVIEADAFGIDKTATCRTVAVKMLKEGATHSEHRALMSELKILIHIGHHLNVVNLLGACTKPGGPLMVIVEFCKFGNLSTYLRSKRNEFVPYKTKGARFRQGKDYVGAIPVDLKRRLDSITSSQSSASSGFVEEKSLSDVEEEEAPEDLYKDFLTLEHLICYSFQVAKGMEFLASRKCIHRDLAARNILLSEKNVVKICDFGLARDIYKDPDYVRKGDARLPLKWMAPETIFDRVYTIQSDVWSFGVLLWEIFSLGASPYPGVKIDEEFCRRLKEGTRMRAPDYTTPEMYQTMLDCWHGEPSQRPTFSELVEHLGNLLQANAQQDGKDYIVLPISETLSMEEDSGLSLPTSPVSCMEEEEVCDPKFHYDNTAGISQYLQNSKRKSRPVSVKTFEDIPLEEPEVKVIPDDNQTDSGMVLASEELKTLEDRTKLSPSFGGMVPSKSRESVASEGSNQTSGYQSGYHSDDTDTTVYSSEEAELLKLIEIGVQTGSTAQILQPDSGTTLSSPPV

| Structure (SMILES) | IC50 (VEGFR2) [nM] | IC50 (PDGFRB) [nM] | IC50 (FGFR1) [nM] |
| --- | --- | --- | --- |
| COc1cc2nccc(Oc3ccc(NC(=S)NC(C)C)c(Cl)c3)c2cc1C(N)=O [Example 52] | < 50 | 50 to 200 | 200 to 1000 |
| COc1cc2nccc(Oc3ccc(NC(=S)NC4CC4)c(Cl)c3)c2cc1C(=O)N1CC(F)(F)C1 [Example 53] | 200 to 1000 | 50 to 200 | 200 to 1000 |
| COc1cc2nccc(Oc3ccc(NC(=S)NC4CC4)c(Cl)c3)c2cc1C(=O)NC1CC1 [Example 54] | 50 to 200 | 200 to 1000 | 200 to 1000 |
| COc1cc2nccc(Oc3ccc(NC(N)=S)c(Cl)c3)c2cc1C(N)=O [Example 57] | < 50 | 50 to 200 | 200 to 1000 |
| COc1cc2nccc(Oc3ccc(NC(=S)NC4CC=C(F)CC4)c(Cl)c3)c2cc1C(N)=O (stereo not drawn) [Example 60] | 200 to 1000 | 200 to 1000 | 200 to 1000 |
| COc1cc2nccc(Oc3ccc(NC(=S)NC4CCC(F)(F)CC4)c(Cl)c3)c2cc1C(N)=O [Example 61] | 200 to 1000 | 50 to 200 | 200 to 1000 |
| COCCNC(=O)c1cc2c(Oc3ccc(NC(=S)NC4CC4)c(Cl)c3)ccnc2cc1OC [Example 62] | 50 to 200 | 200 to 1000 | 200 to 1000 |
| COc1cc2nccc(Oc3ccc(NC(=S)NCCCSC)c(Cl)c3)c2cc1C(N)=O [Example 63] | 50 to 200 | < 50 | 200 to 1000 |
| COc1cc2nccc(Oc3ccc(NC(=S)Nc4ccc(F)cc4)c(Cl)c3)c2cc1C(N)=O [Example 64] | 50 to 200 | < 50 | 200 to 1000 |
| COc1cc2nccc(Oc3ccc(NC(=S)Nc4ccccc4F)c(Cl)c3)c2cc1C(N)=O [Example 65] | 50 to 200 | < 50 | 200 to 1000 |
| COc1cc2nccc(Oc3ccc(NC(=S)N4CCC(F)(F)C4)c(Cl)c3)c2cc1C(N)=O [Example 66] | 50 to 200 | 200 to 1000 | 200 to 1000 |
| COc1cc2nccc(Oc3ccc(NC(=S)N4CCC(F)(F)CC4)c(Cl)c3)c2cc1C(N)=O [Example 67] | 50 to 200 | 200 to 1000 | 200 to 1000 |
| COc1cc2nccc(Oc3ccc(NC(=S)N4CCC4)c(Cl)c3)c2cc1C(N)=O [Example 68] | 50 to 200 | 50 to 200 | 50 to 200 |
| COc1cc2nccc(Oc3ccc(NC(=S)N4CC(O)C4)c(Cl)c3)c2cc1C(N)=O [Example 69] | 50 to 200 | 50 to 200 | 200 to 1000 |
| COc1cc2nccc(Oc3ccc(NC(=S)Nc4cnc(C)s4)c(Cl)c3)c2cc1C(N)=O [Example 71] | 50 to 200 | 50 to 200 | 200 to 1000 |
| COc1cc(Oc2ccnc3cc(OC)c(C(N)=O)cc23)ccc1NC(=S)NC1CC1 [Example 72] | 50 to 200 | 50 to 200 | 200 to 1000 |
| COc1cc2nccc(Oc3ccc(NC(=S)N4CC[C@@H](O)C4)c(Cl)c3)c2cc1C(N)=O [Example 73] | 50 to 200 | 200 to 1000 | 200 to 1000 |
| COc1cc2nccc(Oc3ccc(NC(=S)N4CC[C@H](O)C4)c(Cl)c3)c2cc1C(N)=O [Example 74] | 50 to 200 | 200 to 1000 | 200 to 1000 |
| COc1cc2nccc(Oc3ccc(NC(=S)NC4(C#N)CC4)c(Cl)c3)c2cc1C(N)=O [Example 75] | 200 to 1000 | 200 to 1000 | 200 to 1000 |
| COc1cc2nccc(Oc3ccc(NC(=S)NC4(C(F)(F)F)CC4)c(Cl)c3)c2cc1C(N)=O [Example 76] | 200 to 1000 | 200 to 1000 | 200 to 1000 |
| COc1cc2nccc(Oc3cc(Cl)c(NC(=S)NC4CC4)cc3F)c2cc1C(N)=O [Example 77] | < 50 | 50 to 200 | 200 to 1000 |
| COc1cc2nccc(Oc3ccc(NC(=S)NC4CC4)c(Cl)c3)c2cc1C#N [Example 80] | 50 to 200 | 200 to 1000 | 200 to 1000 |
| COc1cc2nccc(Oc3ccc(N4C(=O)CN(C)C4=S)c(Cl)c3)c2cc1C(N)=O [Example 81] | 200 to 1000 | 50 to 200 | 200 to 1000 |

| Structure (SMILES) | IC50 (VEGFR2) [nM] | IC50 (PDGFRB) [nM] | IC50 (FGFR1) [nM] |
| --- | --- | --- | --- |
| COc1cc2nccc(Oc3ccc(N4CC(=O)N(C)C4=S)c(Cl)c3)c2cc1C(N)=O [Example 82] | 200 to 1000 | 50 to 200 | 200 to 1000 |
| COc1cc2nccc(Oc3cc(F)c(NC(=S)NC4CC4)c(F)c3)c2cc1C(N)=O [Example 83] | 50 to 200 | 50 to 200 | 200 to 1000 |
| COc1cc2ncc(Cl)c(Oc3ccc(NC(=S)NC4CC4)c(Cl)c3)c2cc1C(N)=O [Example 84] | 200 to 1000 | 200 to 1000 | 200 to 1000 |
| COc1cc2nccc(Oc3ccc(NC(=S)N4CC(C)(O)C4)c(Cl)c3)c2cc1C(N)=O [Example 85] | 200 to 1000 | 200 to 1000 | 200 to 1000 |
| COc1cc2ncc(Cl)c(Oc3ccc(NC(=S)N4CCCC4)c(Cl)c3)c2cc1C(N)=O [Example 88] | 200 to 1000 | 200 to 1000 | 200 to 1000 |
| COc1cc2ncc(Cl)c(Oc3ccc(NC(=S)N4CC(F)(F)C4)c(Cl)c3)c2cc1C(N)=O [Example 89] | 200 to 1000 | 200 to 1000 | 200 to 1000 |
| COc1cc2nccc(Oc3cc(F)c(NC(=S)N4CC(F)(F)C4)c(F)c3)c2cc1C(N)=O [Example 90] | 200 to 1000 | 200 to 1000 | 50 to 200 |
| COc1cc2nccc(Oc3cc(F)c(NC(=S)N4CCCC4)c(F)c3)c2cc1C(N)=O [Example 91] | 50 to 200 | 200 to 1000 | 200 to 1000 |
| C#CCNC(=S)Nc1ccc(Oc2ccnc3cc(OC)c(C(N)=O)cc23)cc1Cl [Example 92] | 50 to 200 | 50 to 200 | 200 to 1000 |
| COc1cc2nccc(Oc3ccc(NC(=S)NC4CCOC4=O)c(Cl)c3)c2cc1C(N)=O (stereo not drawn) [Example 93] | 200 to 1000 | 200 to 1000 | 200 to 1000 |
| COc1cc2nccc(Oc3ccc(NC(=S)NC4CCNC4=O)c(Cl)c3)c2cc1C(N)=O (stereo not drawn) [Example 94] | 200 to 1000 | 200 to 1000 | 200 to 1000 |
| COc1cc2nccc(Oc3ccc(NC(=S)N4CC(F)(F)C4)cc3F)c2cc1C(N)=O [Example 101] | 200 to 1000 | 50 to 200 | 200 to 1000 |
| COC[C@@H]1CCCN1NC(=S)Nc1ccc(Oc2ccnc3cc(OC)c(C(N)=O)cc23)c(F)c1Cl [Example 105] | 200 to 1000 | 200 to 1000 | 200 to 1000 |
| COc1cc2nccc(Oc3ccc(NC(=S)N4CC[C@H](O)C4)c(Cl)c3F)c2cc1C(N)=O [Example 106] | < 50 | 200 to 1000 | 50 to 200 |
| COc1cc2nccc(Oc3ccc(NC(=S)N4CC[C@@H](F)C4)c(Cl)c3F)c2cc1C(N)=O [Example 108] | 50 to 200 | 200 to 1000 | 50 to 200 |
| COc1cc2nccc(Oc3ccc(NC(=S)N4CC[C@@H](O)C4)c(Cl)c3F)c2cc1C(N)=O [Example 111] | 50 to 200 | 200 to 1000 | 50 to 200 |
| COc1cc2nccc(Oc3ccc(NC(=O)N4CC[C@@H](F)C4)c(Cl)c3F)c2cc1C(N)=O [Example 113] | 200 to 1000 | 200 to 1000 | 200 to 1000 |
| COc1cc2nccc(Oc3ccc(NC(=O)N4CC[C@@H](O)C4)c(Cl)c3F)c2cc1C(N)=O [Example 115] | 200 to 1000 | 200 to 1000 | 200 to 1000 |
| COc1cc2nccc(Oc3ccc(NC(=O)N4CC[C@H](F)C4)c(Cl)c3F)c2cc1C(N)=O [Example 117] | 50 to 200 | 50 to 200 | 200 to 1000 |
| COc1cc2nccc(Oc3ccc(NC(=O)N4CC[C@H](O)C4)c(Cl)c3F)c2cc1C(N)=O [Example 118] | 50 to 200 | 50 to 200 | 200 to 1000 |
| COc1cc2nccc(Oc3ccc(NC(=O)N4CC(F)(F)C4)c(Cl)c3F)c2cc1C(N)=O [Example 119] | 50 to 200 | < 50 | 200 to 1000 |
| COc1cc2nccc(Oc3ccc(NC(=O)N4CCCC4)c(Cl)c3F)c2cc1C(N)=O [Example 120] | 50 to 200 | 50 to 200 | 200 to 1000 |
| COc1cc2nccc(Oc3ccc(NC(=O)N4CC(O)C4)c(Cl)c3F)c2cc1C(N)=O [Example 121] | 50 to 200 | 200 to 1000 | 200 to 1000 |
